Experimental data as given in the CheMixHub viscosity set.
“And” between values parts separate entries of the source, which are not always exact repeats. Equal values may be shown once.

Experiment: xn = mol fraction of the nth substance listed

CCCCCCCCO + COC(=O)OC
viscosity [mPa·s], 100 kPa
Conditions | 293.15 K | 298.15 K | 303.15 K | 308.15 K | 313.15 K | 318.15 K | 323.15 K
x2 = 0.1 | – | – | 4.529 | 3.905 | 3.388 | 2.951 | 2.59
x2 = 0.1003 | 6.22 | 5.35 | 4.58 | 3.94 | 3.41 | 2.97 | 2.61
x2 = 0.1999 | – | – | 3.34 | 2.917 | 2.56 | 2.263 | –
x2 = 0.2001 | 4.4 | 3.86 | 3.45 | 2.93 | 2.61 | 2.24 | 1.99
x2 = 0.2997 | 3.28 | 2.87 | 2.52 | 2.22 | 1.97 | 1.76 | 1.58
x2 = 0.3 | – | – | 2.516 | 2.22 | 1.971 | 1.763 | –
x2 = 0.3999 | – | – | 1.931 | 1.73 | 1.547 | 1.395 | –
x2 = 0.4005 | 2.44 | 2.14 | 1.9 | 1.69 | 1.5 | 1.35 | 1.22
x2 = 0.5 | – | – | 1.505 | 1.358 | 1.229 | 1.119 | –
x2 = 0.5004 | 1.83 | 1.63 | 1.46 | 1.31 | 1.18 | 1.08 | 0.98
x2 = 0.5996 | 1.39 | 1.25 | 1.13 | 1.03 | 0.94 | 0.86 | 0.8
x2 = 0.6 | – | – | 1.183 | 1.079 | 0.984 | 0.903 | –
x2 = 0.7 | – | – | 0.959 | 0.88 | 0.814 | 0.754 | –
x2 = 0.7001 | 1.08 | 0.98 | 0.9 | 0.83 | 0.77 | 0.71 | 0.66
x2 = 0.7999 | – | – | 0.765 | 0.711 | 0.662 | 0.617 | –
x2 = 0.8001 | 0.85 | 0.78 | 0.72 | 0.67 | 0.62 | 0.58 | 0.54
x2 = 0.9 | – | – | 0.633 | 0.591 | 0.554 | 0.523 | –
x2 = 0.9005 | 0.66 | 0.61 | 0.58 | 0.54 | 0.51 | 0.48 | 0.45

CC#N + CO
Conditions | viscosity
298.15 K, 101 kPa, x1 = 0.0892 | 0.478 mPa·s
298.15 K, 101 kPa, x1 = 0.1871 | 0.431 mPa·s
298.15 K, 101 kPa, x1 = 0.2884 | 0.397 mPa·s
298.15 K, 101 kPa, x1 = 0.4054 | 0.365 mPa·s
298.15 K, 101 kPa, x1 = 0.4849 | 0.351 mPa·s
298.15 K, 101 kPa, x1 = 0.5981 | 0.339 mPa·s
298.15 K, 101 kPa, x1 = 0.6986 | 0.331 mPa·s
298.15 K, 101 kPa, x1 = 0.8078 | 0.327 mPa·s
298.15 K, 101 kPa, x1 = 0.9013 | 0.329 mPa·s
298.15 K, 101 kPa, x2 = 0.1219 | 0.331 mPa·s
298.15 K, 101 kPa, x2 = 0.178 | 0.334 mPa·s
298.15 K, 101 kPa, x2 = 0.2 | 0.334 mPa·s
298.15 K, 101 kPa, x2 = 0.216 | 0.329 mPa·s and 0.333 mPa·s
298.15 K, 101 kPa, x2 = 0.3487 | 0.334 mPa·s
298.15 K, 101 kPa, x2 = 0.378 | 0.342 mPa·s
298.15 K, 101 kPa, x2 = 0.394 | 0.343 mPa·s
298.15 K, 101 kPa, x2 = 0.4 | 0.343 mPa·s
298.15 K, 101 kPa, x2 = 0.412 | 0.345 mPa·s
298.15 K, 101 kPa, x2 = 0.577 | 0.369 mPa·s
298.15 K, 101 kPa, x2 = 0.6 | 0.373 mPa·s
298.15 K, 101 kPa, x2 = 0.6804 | 0.339 mPa·s
298.15 K, 101 kPa, x2 = 0.711 | 0.402 mPa·s
298.15 K, 101 kPa, x2 = 0.743 | 0.419 mPa·s
298.15 K, 101 kPa, x2 = 0.8 | 0.435 mPa·s
298.15 K, 101 kPa, x2 = 0.86 | 0.459 mPa·s
298.15 K, 101 kPa, x2 = 0.881 | 0.469 mPa·s
298.15 K, 101 kPa, x2 = 0.887 | 0.472 mPa·s
298.15 K, 101 kPa, x2 = 0.9 | 0.48 mPa·s
298.15 K, 101.33 kPa, x1 = 0.0495 | 0.509 mPa·s
298.15 K, 101.33 kPa, x1 = 0.0999 | 0.479 mPa·s
298.15 K, 101.33 kPa, x1 = 0.1494 | 0.455 mPa·s
298.15 K, 101.33 kPa, x1 = 0.1995 | 0.434 mPa·s
298.15 K, 101.33 kPa, x1 = 0.245 | 0.418 mPa·s
298.15 K, 101.33 kPa, x1 = 0.2998 | 0.4 mPa·s
298.15 K, 101.33 kPa, x1 = 0.3451 | 0.387 mPa·s
298.15 K, 101.33 kPa, x1 = 0.3997 | 0.374 mPa·s
298.15 K, 101.33 kPa, x1 = 0.4489 | 0.364 mPa·s
298.15 K, 101.33 kPa, x1 = 0.495 | 0.357 mPa·s
298.15 K, 101.33 kPa, x1 = 0.5496 | 0.349 mPa·s
298.15 K, 101.33 kPa, x1 = 0.5999 | 0.343 mPa·s
298.15 K, 101.33 kPa, x1 = 0.6494 | 0.34 mPa·s
298.15 K, 101.33 kPa, x1 = 0.6997 | 0.336 mPa·s
298.15 K, 101.33 kPa, x1 = 0.745 | 0.334 mPa·s
298.15 K, 101.33 kPa, x1 = 0.7995 | 0.333 mPa·s
298.15 K, 101.33 kPa, x1 = 0.8496 | 0.335 mPa·s
298.15 K, 101.33 kPa, x1 = 0.8998 | 0.338 mPa·s
298.15 K, 101.33 kPa, x1 = 0.95 | 0.34 mPa·s
303 K, 100 kPa, x1 = 0.0991 | 0.4985 mPa·s
303 K, 100 kPa, x1 = 0.2043 | 0.4812 mPa·s
303 K, 100 kPa, x1 = 0.316 | 0.4588 mPa·s
303 K, 100 kPa, x1 = 0.4039 | 0.4395 mPa·s
303 K, 100 kPa, x1 = 0.5003 | 0.4202 mPa·s
303 K, 100 kPa, x1 = 0.6063 | 0.4016 mPa·s
303 K, 100 kPa, x1 = 0.7402 | 0.3785 mPa·s
303 K, 100 kPa, x1 = 0.8688 | 0.3645 mPa·s
303.15 K, 101 kPa, x1 = 0.0892 | 0.423 mPa·s
303.15 K, 101 kPa, x1 = 0.1871 | 0.385 mPa·s
303.15 K, 101 kPa, x1 = 0.2884 | 0.357 mPa·s
303.15 K, 101 kPa, x1 = 0.4054 | 0.327 mPa·s
303.15 K, 101 kPa, x1 = 0.4849 | 0.317 mPa·s
303.15 K, 101 kPa, x1 = 0.5981 | 0.308 mPa·s
303.15 K, 101 kPa, x1 = 0.6986 | 0.302 mPa·s
303.15 K, 101 kPa, x1 = 0.8078 | 0.299 mPa·s
303.15 K, 101 kPa, x1 = 0.8746 | 0.514 mPa·s
303.15 K, 101 kPa, x1 = 0.9013 | 0.304 mPa·s
308 K, 100 kPa, x1 = 0.0991 | 0.4521 mPa·s
308 K, 100 kPa, x1 = 0.2043 | 0.4145 mPa·s
308 K, 100 kPa, x1 = 0.316 | 0.3945 mPa·s
308 K, 100 kPa, x1 = 0.4039 | 0.3815 mPa·s
308 K, 100 kPa, x1 = 0.5003 | 0.3712 mPa·s
308 K, 100 kPa, x1 = 0.6063 | 0.3621 mPa·s
308 K, 100 kPa, x1 = 0.7402 | 0.3502 mPa·s
308 K, 100 kPa, x1 = 0.8688 | 0.3423 mPa·s
308.15 K, 101 kPa, x1 = 0.0892 | 0.376 mPa·s
308.15 K, 101 kPa, x1 = 0.1871 | 0.346 mPa·s
308.15 K, 101 kPa, x1 = 0.2884 | 0.321 mPa·s
308.15 K, 101 kPa, x1 = 0.4054 | 0.298 mPa·s
308.15 K, 101 kPa, x1 = 0.4849 | 0.291 mPa·s
308.15 K, 101 kPa, x1 = 0.5981 | 0.282 mPa·s
308.15 K, 101 kPa, x1 = 0.6986 | 0.278 mPa·s
308.15 K, 101 kPa, x1 = 0.8078 | 0.276 mPa·s
308.15 K, 101 kPa, x1 = 0.9013 | 0.28 mPa·s
308.15 K, 101.33 kPa, x1 = 0.0495 | 0.451 mPa·s
308.15 K, 101.33 kPa, x1 = 0.0999 | 0.436 mPa·s
308.15 K, 101.33 kPa, x1 = 0.1494 | 0.412 mPa·s
308.15 K, 101.33 kPa, x1 = 0.1995 | 0.395 mPa·s
308.15 K, 101.33 kPa, x1 = 0.245 | 0.38 mPa·s
308.15 K, 101.33 kPa, x1 = 0.2998 | 0.364 mPa·s
308.15 K, 101.33 kPa, x1 = 0.3451 | 0.352 mPa·s
308.15 K, 101.33 kPa, x1 = 0.3997 | 0.341 mPa·s
308.15 K, 101.33 kPa, x1 = 0.4489 | 0.333 mPa·s
308.15 K, 101.33 kPa, x1 = 0.495 | 0.326 mPa·s
308.15 K, 101.33 kPa, x1 = 0.5496 | 0.32 mPa·s
308.15 K, 101.33 kPa, x1 = 0.5999 | 0.314 mPa·s
308.15 K, 101.33 kPa, x1 = 0.6494 | 0.31 mPa·s
308.15 K, 101.33 kPa, x1 = 0.6997 | 0.307 mPa·s
308.15 K, 101.33 kPa, x1 = 0.745 | 0.305 mPa·s
308.15 K, 101.33 kPa, x1 = 0.7995 | 0.305 mPa·s
308.15 K, 101.33 kPa, x1 = 0.8496 | 0.306 mPa·s
308.15 K, 101.33 kPa, x1 = 0.8998 | 0.307 mPa·s
308.15 K, 101.33 kPa, x1 = 0.95 | 0.309 mPa·s
313 K, 100 kPa, x1 = 0.0991 | 0.4125 mPa·s
313 K, 100 kPa, x1 = 0.2043 | 0.3956 mPa·s
313 K, 100 kPa, x1 = 0.316 | 0.3838 mPa·s
313 K, 100 kPa, x1 = 0.4039 | 0.3736 mPa·s
313 K, 100 kPa, x1 = 0.5003 | 0.3612 mPa·s
313 K, 100 kPa, x1 = 0.6063 | 0.3512 mPa·s
313 K, 100 kPa, x1 = 0.7402 | 0.3375 mPa·s
313 K, 100 kPa, x1 = 0.8688 | 0.3215 mPa·s
318.15 K, 101.33 kPa, x1 = 0.0495 | 0.403 mPa·s
318.15 K, 101.33 kPa, x1 = 0.0999 | 0.39 mPa·s
318.15 K, 101.33 kPa, x1 = 0.1494 | 0.376 mPa·s
318.15 K, 101.33 kPa, x1 = 0.1995 | 0.361 mPa·s
318.15 K, 101.33 kPa, x1 = 0.245 | 0.347 mPa·s
318.15 K, 101.33 kPa, x1 = 0.2998 | 0.333 mPa·s
318.15 K, 101.33 kPa, x1 = 0.3451 | 0.323 mPa·s
318.15 K, 101.33 kPa, x1 = 0.3997 | 0.313 mPa·s
318.15 K, 101.33 kPa, x1 = 0.4489 | 0.306 mPa·s
318.15 K, 101.33 kPa, x1 = 0.495 | 0.3 mPa·s
